Experimental data: ChEMBL document CHEMBL1149706, “Discovering benzamide derivatives as glycogen phosphorylase inhibitors and their binding site at the enzyme” (Bioorg Med Chem, 2007)

Test: Inhibition of rabbit muscle GPa
Parameters: species or system Oryctolagus cuniculus

SMILES	IC50
Cn1ccnc1Sc1cc(C(=O)Nc2cccc(N)c2)c(N)cc1F	2.68 µM
Cn1ccnc1Sc1cc(C(=O)Nc2ccccc2C#N)c(N)cc1F	75.9 µM
Cn1ccnc1Sc1cc(C(=O)Nc2ccccc2)c(N)cc1F	215 µM
COc1ccc(NC(=O)c2cc(Sc3nccn3C)c(F)cc2N)cc1	107 µM
O=C(CN1CCN(c2ccccc2F)CC1)Nc1nccs1	35.8 µM
Cc1ccc(NC(=O)c2cc(Sc3nccn3C)c(F)cc2N)cc1	70.1 µM
O=C(CN1CCN(c2ccccc2)CC1)Nc1nccs1	96.9 µM
Cn1ccnc1Sc1cc(C(=O)Nc2ccc(C#N)cc2)c(N)cc1F	96.1 µM
Cn1ccnc1Sc1cc(C(=O)Nc2ccc(N)cc2)c(N)cc1F	91.1 µM
Cn1ccnc1Sc1cc(C(=O)Nc2cccc(C#N)c2)c(N)cc1F	9.87 µM
O=C(Nc1nccs1)c1ccc(C(=O)Nc2nccs2)cc1	337 µM
O=C(Nc1ccccn1)c1cccc(C(=O)Nc2ccccn2)n1	425 µM
COc1ccccc1NC(=O)c1cc(Sc2nccn2C)c(F)cc1N	41.8 µM
COc1cccc(NC(=O)c2cc(Sc3nccn3C)c(F)cc2N)c1	166 µM
Cn1ccnc1Sc1cc(C(=O)Nc2ccccc2N)c(N)cc1F	95.3 µM
O=C(CN1CCN(c2ccccc2F)CC1)Nc1cccc(C(F)(F)F)c1	78.5 µM
Cn1ccnc1Sc1cc(C(=O)NCc2ccccc2)c(N)cc1F	153 µM
COc1ccccc1N1CCN(CC(=O)Nc2cccc(C(F)(F)F)c2)CC1	46.1 µM
Cn1ccnc1Sc1cc(C(=O)Nc2cccc(C(F)(F)F)c2)c(N)cc1F	8.95 µM
O=C(Nc1ccccn1)c1cccc(C(=O)Nc2ccccn2)c1	57.6 µM
Cn1ccnc1Sc1cc(C(=O)Nc2cccc(F)c2)c(N)cc1F	30.9 µM
O=C(Nc1nncs1)c1ccc(C(=O)Nc2nncs2)cc1	269 µM
